# Several values for one entry are separate records, joined by “and”; a condition that tells them apart may be missing. Identical values can stand only once.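 Grown in 96-well plates, cells were treated for 48 hours with each compound at five concentrations. Insufficient inhibition: endpoint recorded as highest concentration tested. Abbreviation: GI50, concentration required for 50% inhibition of growth. Definition used: TGI = concentration required for complete inhibition of growth.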
# Tests used:
# Assay in all cases: growth of human tumour cells (NCI), 48 h
# SW-620 colon = system: SW-620 colon
# MOLT-4 leukemia = system: MOLT-4 leukemia
# U251 CNS = system: U251 CNS
# CCRF-CEM leukemia = system: CCRF-CEM leukemia
# MCF7 breast = system: MCF7 breast
# IGROV1 ovarian = system: IGROV1 ovarian
# PC-3 prostate = system: PC-3 prostate
# HCT-116 colon = system: HCT-116 colon
# EKVX NSCLC = system: EKVX NSCLC
# RXF 393 renal = system: RXF 393 renal
Structure (SMILES),GI50 (SW-620 colon),TGI (SW-620 colon),GI50 (MOLT-4 leukemia),TGI (MOLT-4 leukemia),GI50 (U251 CNS),TGI (U251 CNS),GI50 (CCRF-CEM leukemia),TGI (CCRF-CEM leukemia),GI50 (MCF7 breast),TGI (MCF7 breast),GI50 (IGROV1 ovarian),TGI (IGROV1 ovarian),GI50 (PC-3 prostate),TGI (PC-3 prostate),GI50 (HCT-116 colon),TGI (HCT-116 colon),GI50 (EKVX NSCLC),TGI (EKVX NSCLC),GI50 (RXF 393 renal),TGI (RXF 393 renal)
CN(C)c1ccc(/C=C(\C#N)c2ccccc2)cc1,0.28 µM and 0.447 µM and 0.444 µM,> 100 µM,0.372 µM and 0.439 µM and 0.545 µM,> 100 µM,0.378 µM and 0.499 µM and 0.538 µM,55.4 µM and > 100 µM and 91.5 µM,0.332 µM and 0.553 µM and 0.595 µM,13.4 µM and > 100 µM,0.261 µM and 0.276 µM and 0.281 µM,> 100 µM,0.599 µM and 1.81 µM,> 100 µM,0.272 µM and 1.92 µM and 0.956 µM,> 100 µM,0.384 µM and 0.441 µM and 0.414 µM,> 60.6 µM and > 100 µM and 29.6 µM,0.499 µM and 1.43 µM and 1.78 µM,> 100 µM,0.394 µM and 0.662 µM and 0.817 µM,3.09 µM and 5.77 µM
O=C(O)c1ccc(NCc2nc3ccccc3[nH]2)cc1,> 100 µM,> 100 µM,> 100 µM,> 100 µM,> 100 µM,> 100 µM,> 100 µM,> 100 µM,99.9 µM,> 100 µM,> 100 µM,> 100 µM,> 100 µM,> 100 µM,> 100 µM,> 100 µM,> 100 µM,> 100 µM,> 100 µM,> 100 µM
[N-]=[N+]=NCCCn1c2c(c3ccc([N+](=O)[O-])cc3c1=O)C(=O)c1cc(I)ccc1-2,1.72 µM,> 100 µM,0.833 µM,5.08 µM,2.23 µM,30.6 µM,0.416 µM,> 100 µM,0.586 µM,> 100 µM,1.95 µM,65.5 µM,11 µM,> 100 µM,2.15 µM,26.4 µM,22 µM,> 100 µM,12.5 µM,62.8 µM
CC(=O)OC1CC2C(C)(C)CCC[C@]2(C)C2=C1C(O)=C(C(C)C)C(=O)C2=O (some centres not stated),0.911 µM,2.92 µM,1.4 µM,> 30.8 µM,0.666 µM,21.7 µM,1.12 µM,7.03 µM,1.1 µM,3.75 µM,1.53 µM,5.52 µM,0.731 µM,5.12 µM,0.499 µM,1.99 µM,0.3 µM,1.53 µM,0.254 µM,1.02 µM
C[C@@H]1CC[C@H]2[C@@H](C)C(OC/C=C/COC3O[C@@H]4O[C@@]5(C)CC[C@H]6[C@H](C)CC[C@@H]([C@H]3C)[C@@]46OO5)O[C@@H]3O[C@@]4(C)CC[C@@H]1[C@]32OO4 (some centres not stated),< 0.01 µM,> 100 µM,< 0.01 µM,> 47.2 µM,< 0.01 µM,> 20.9 µM,< 0.01 µM,> 50.6 µM,< 0.01 µM,20.1 µM,0.77 µM,38 µM,< 0.01 µM,> 100 µM,< 0.01 µM,13.9 µM,16 µM,> 100 µM,< 0.01 µM,28.2 µM
COc1ccc(C2CC(c3ccccc3)=NN2C(=O)c2cc(OC)c(OC)c(OC)c2)cc1O (configuration not stated),0.415 µM,> 55.7 µM,0.469 µM,16.2 µM,0.383 µM,13.8 µM,0.473 µM,> 31.9 µM,0.339 µM,> 53.6 µM,0.498 µM,> 100 µM,0.369 µM,> 52.8 µM,0.313 µM,3.05 µM,3.04 µM,> 100 µM,0.317 µM,0.84 µM
C=C1C[C@@H](O)[C@@H](Br)C(C)(C)[C@]12CCC(C)(Br)C(Cl)C2 (some centres not stated),15.2 µM,> 50 µM and 33 µM,14.2 µM,> 50 µM and 34.5 µM,17.7 µM,> 50 µM and 31.5 µM,1.05 µM,> 50 µM and 14.4 µM,16.8 µM,> 50 µM and 31.1 µM,18 µM,> 50 µM and 36.1 µM,0.107 µM,10.8 µM and 2.29 µM,19.3 µM,> 50 µM and 36.2 µM,2.54 µM,50 µM and 15.2 µM,18.5 µM,> 50 µM and 37.2 µM
CON=C1C[C@]2(C[C@@H]3C[C@@H](C/C=C(\C)C[C@@H](C)/C=C/C=C4\CO[C@@H]5[C@H](O)C(C)=C[C@@H](C(=O)O3)[C@]45O)O2)O[C@H](/C(C)=C/C(C)C)[C@H]1C,11.8 µM,25.3 µM,3.02 µM,8.53 µM,11.3 µM,24.3 µM,7.65 µM,34.3 µM,15.9 µM,30 µM,11.5 µM,23.9 µM,2.63 µM,11.2 µM,5.44 µM,19 µM,6.99 µM,24 µM,16.4 µM,30.6 µM
O=C1CC(C(=O)O)Cc2c(Br)ccc(O)c21 (configuration not stated),,,,> 100 µM,,> 100 µM,,> 100 µM,,> 100 µM,,> 100 µM,,> 100 µM,,> 100 µM,,> 100 µM,,> 100 µM
Cc1cncc(-c2nc(NCCc3c[nH]c4ccccc34)c3ncn(C(C)C)c3n2)c1,3.48 µM,15.1 µM,,,4.96 µM,39.6 µM,2.99 µM,9.84 µM,4.05 µM,15.6 µM,5.94 µM,22.1 µM,3.98 µM,35.8 µM,3.88 µM,> 100 µM,6.77 µM,35.5 µM,2.54 µM,11.2 µM

# Source: PubChem BioAssay (NCI)
